Results from patent US20030208035A1, “Antifungal and/or antibacterial peptides, preparation methods, compositions containing same and methods of treating mammals and/or plants” (priority 2000, published 2003).
Bridges are numbered along the chain shown (N, C = ends). Where no end group is shown, it is not given here.

Columns and labels:
[1] = tested on: Aspergillus fumigatus; assay: anti-Aspergillus fumigatus growth inhibition test in liquid medium (96-well microplates); assay type: cell-based; conditions: fold relative to Ard1
Procedure: The anti-Candida albicans and anti-Aspergillus fumigatus activities of the different analogues were assessed using a growth inhibition test in liquid medium made in 96-well microplates. The activity of the purified peptides was tested for different dilutions of each peptide and was compared with those of heliomycin and Ard1 quantified under the same conditions.
The spores of Aspergillus fumigatus were derived from a stock frozen at −80° C., containing 10^7 spores/ml in a 25% glycerol solution. After slow thawing at room temperature, the spores were placed in suspension in PDB culture medium (12 g Potato Dextrose Broth medium, per […] water). 10 μl of each sample were deposited in the wells of microtitration plates in the presence of 90 μl PDB culture medium supplemented with tetracycline (100 μg/ml) and cefotaxime (1 μg/ml) containing the spores (at a final concentration of 1000 spores/well). Control cultures were systematically made in which 10 μl of sample were replaced by 10 μl of sterile water. Media sterility was controlled by incubating 10 μl sterile water in the presence of 90 μl of medium. The samples were incubated at 37° C. for 24 h to 48 h in a humid atmosphere, and the antifungal activity was quantified by a score of 0 to 9 taking germination account; the size and morphology of the hyphs were determined under the binocular microscope. […].

[2] = tested on: Candida albicans (IHEM 8060 strain); assay: Candida albicans infected model, lethal in mice (disseminated candidiasis); assay type: in vivo; conditions: for mice alive on day 7 (out of 10): placebo 5 alive; for time of onset of the 1st death: placebo day 2.5; for effect on mouse survival relative to placebo treatment: 3.10^6 CFU, three i.v. injections, 10 mice of 15 g; for effect on mouse survival relative to placebo treatment / morbidity score up to post-infection day 5 / median mortality, post-infection day / delay of onset of the 1st death: 5 mg/kg; for morbidity score up to post-infection day 5: placebo 1/50; for median mortality, post-infection day: placebo day 4; for delay of onset of the 1st death: placebo first deaths 2.5 days
Procedure: Heliomycin and its analogues were tested for in vivo antifungal activity in a model infected with Candida albicans, lethal in mice. The pathogenic agent Candida albicans (IHEM 8060 strain) was inoculated by intravenous route (i.v.) at a dose of 2.5×10^6 CFU/mouse. the peptides were administered by i.v. route in 4 injections 6 h, 24 h, 48 h and 72 h after infection. Assessment criteria for activity were evaluation of survival and morbidity at 7 days. The morbidity scores, which take into account general state of health (condition of fur, mobility, hydration) were determined for each mouse with values ranging from 0 to 5 and defined below: 0=dead, 1=moribund, 2=very ill, 3=ill, 4=slightly ill, 5=healthy. The sum of the individual scores was calculated for each group, a score of 50 for a group of 10 mice meaning that all the mice were healthy.
Following a standard protocol, groups of 10 Swiss OF1 male mice weighing 12 g were infected via i.v. route with a dose of 2.5×10^6 CFU/mouse. Heliomycin and Ard1 were administered by i.v. route in 4 injections, 6 h, 24 h, 48 h and 72 h after infection. For each peptide, 2 doses were tested: 10 mg/kg and 30 mg/kg. A placebo group was injected with peptide solvent, 0.9% sodium chloride.
In this experiment, inoculation of the mice with 2.5.10^6 CFU/mouse was 50% lethal at day 5 in the group which received placebo treatment. The first deaths occurred on post-infection day 2.5 and median mortality occurred on post-infection day 5. On day 7, 5 mice were alive and the morbidity score 15/50.
In this experiment, inoculation of Swiss OF1 mice weighing 15 g with 3.10^6 CFU of Candida albicans induces 50% mortality on day 4 after infection in the group treated with the placebo. The first deaths occur 2.5 days after infection, and 100% of the mice were dead on day 5.5.
In this experiment, inoculation of the mice with 2.5.10^6 CFU/mouse was 50% lethal at day 5 and 100% at day 8 for mice in the placebo group. The first death occurred 3 days after infection. The morbidity score fell rapidly below 30/50 (25/50 at day 2.5).
The pEM35 peptide was administered at doses of 10 and 30 mg/kg/injection with 3 daily doses for 4 days (1 h, 5 h and 10 h post-infection on day 0; at 8 h, 14 h and 20 h on days 1, 2 and 3), i.e., daily doses totalling 30 and 90 mg/kg.

[3] = tested on: Scedosporium inflatum (FSSP 7908 strain); assay: Scedosporium inflatum infected model (invasive scedosporiosis), continuous infusion by osmotic pumps; assay type: in vivo, mice; conditions: for 50% mortality, post-infection day: controls day 7
Procedure: Swiss OF1 mice weighing 22 g were infected by intravenous route (i.v.) with a lethal dose of Scedosporium inflatum (FSSP 7908 strain cultured on Malt Agar gelose for 7 days at 37° C.). The infecting dose was 7.10^6 spores per mouse, injected in a volume of 100 μl via the lateral tail vein.
Peptides pEM35 and pEM51 were administered continuously using ALZET 1003D osmotic pumps (flow rate: 0.97 μl/h; volume: 93 μl; infusion time: 4 days) and 1007D pumps (flow rate: 0.47 μl/h; volume: 100 μl; infusion time: 8 and half days) with intraperitoneal insertion
Groups of 8 infected mice were treated either with:
c) with pEM51 delivered i.p. by 1007D pumps at a dose of 30 mg/kg for 8 days, corresponding to a theoretical equilibrium plasma concentration of 0.3 μg/ml;
d) with pEM51 delivered i.p. by 1003D pumps at a dose of 60 mg/kg for 4 days, corresponding to a theoretical equilibrium plasma concentration of 0.6 μg/ml;
e) with pEM35 delivered i.p. by 1003D pumps at a dose of 35 mg/kg for 4 days, corresponding to a theoretical equilibrium plasma concentration of 0.35 μg/ml.
In this model of invasive scedosporiosis, inoculation of a dose of 7.10^6 spores of Scedosporium inflatum was 50% lethal on post-infection day 7. The first death occurred at 5 days and 6 days respectively after infection for the control mice group (infected, non-treated) and the placebo group (infected and with Alzet pumps). 100% mortality was observed on day 11 in the control group and 75% mortality on day 20 for the placebo group. The state of health of the mice deteriorated rapidly on and after post-infection day 3 with a morbidity score for these two groups of 28/40 and 34/40 on day 3 and 6/40 and 7/40 on post-infection day 7. Signs of encephalitis occurred on post-infection day 4.

[4] = Acute toxicity study in mice; assay type: in vivo; conditions: for acute toxicity: mice, intravenous, in 0.9% NaCl, injections of 30 mg/kg repeated at 30-minute intervals, 3 times daily for 3 days
Procedure: […] The peptides were solubilised in a 0.9% NaCl solution; the injected volume was 150 μl injected in 45 seconds via the lateral tail vein.

DKLIGSCVWGAVNYTSNCNAECKRRGYKGGHCGSFANVNCWCQT (disulfide 7-32, 18-40, 22-42 (inferred)) [pEM31]
Activity A.f. (relative activity in relation to Ard1) [1]: 4-8 | activity compared with Ard1 ([2]; FIGS. 4-5, 10 mg/kg): more active than Ard1 | morbidity score maintained for 5 days ([2]; FIGS. 4-5, 10 mg/kg): higher than 40/50 | mice alive on day 7 (out of 10) ([2]; FIGS. 4-5, 10 mg/kg): 8 mice | time of onset of the 1st death ([2]; FIGS. 4-5, 10 mg/kg): 5.5 days | effect on mouse survival relative to placebo treatment ([2]; FIGS. 6-7): does not significantly increase mouse survival | effectiveness in the candidiasis infected model ([2]; FIGS. 6-7, dose 5 mg/kg): not effective

DKLIGSCVWGAVNYTSNCNAECKRRGYKGGHCGSFLNVNCWCET (disulfide 7-32, 18-40, 22-42 (inferred)) [pEM35]
Activity A.f. (relative activity in relation to Ard1) [1]: 2-4 | survival rate on post-infection day 8 ([2]; FIG. 8, 30 mg/kg/day (10 mg/kg/injection, 3 daily, 4 days), placebo 100% lethal day 8): 80% | survival rate on post-infection day 8 ([2]; FIG. 8, 90 mg/kg/day (30 mg/kg/injection, 3 daily, 4 days)): 90% | morbidity score on day 8 ([2]; FIG. 8, 30 and 90 mg/kg/day): 30/50 | morbidity score until day 7 ([2]; FIG. 8, 30 and 90 mg/kg/day): above 40/50 | activity compared with Ard1 ([2]; FIGS. 4-5, 10 mg/kg): more active than Ard1 | mice alive on day 7 (out of 10) ([2]; FIGS. 4-5, 10 mg/kg): 9 mice | time of onset of the 1st death ([2]; FIGS. 4-5, 10 mg/kg): 7 days | morbidity score up to post-infection day 5 ([2]; FIGS. 6-7): 28/50 | median mortality, post-infection day ([2]; FIGS. 6-7): 6 days | delay of onset of the 1st death ([2]; FIGS. 6-7): 1.5 days | delay of onset of the first death ([3]; 35 mg/kg for 4 days i.p. by 1003D pumps): 5 days | delay of 50% mortality relative to control and placebo groups ([3]; 35 mg/kg for 4 days i.p. pumps): 8 days | mice alive on day 20 (out of 8) ([3]; 35 mg/kg for 4 days i.p. pumps): 1 mouse | morbidity score post-infection day 5 ([3]; 35 mg/kg for 4 days i.p. pumps): 28/40 | morbidity score post-infection day 15 ([3]; 35 mg/kg for 4 days i.p. pumps): 8/40 | 50% mortality, post-infection day ([3]; 35 mg/kg for 4 days i.p. pumps): 15 days | acute toxicity [4]: no acute toxicity was observed | delayed growth (weight) on the day after the injection ([4]; single i.v. dose 200 mg/kg): approximately 1 g | delayed growth (weight) on the day after the injection ([4]; single i.v. dose 400 mg/kg): approximately 1 g

DKLIGSCVWGAVNYTSNCNAECKRRGYKGGHCGSFLNVNCWCQT (disulfide 7-32, 18-40, 22-42 (inferred)) [pEM46]
Activity A.f. (relative activity in relation to Ard1) [1]: 6-8 | effect on mouse survival relative to placebo treatment ([2]; FIGS. 6-7): does not significantly increase mouse survival

DKLIGSCVWGAVNYTSNCRAECKRRGYKGGHCGSFANVNCWCET (disulfide 7-32, 18-40, 22-42 (inferred)) [pEM51]
Activity A.f. (relative activity in relation to Ard1) [1]: 1 | morbidity score up to post-infection day 5 ([2]; FIGS. 6-7): 11/50 | median mortality, post-infection day ([2]; FIGS. 6-7): 5 days | delay of onset of the 1st death ([2]; FIGS. 6-7): 1.5 days | therapeutic efficacy in terms of survival ([3]; 30 mg/kg for 8 days): very good therapeutic efficacy | delay of onset of the first death ([3]; 30 mg/kg for 8 days i.p. by 1007D pumps, 7.10^6 spores i.v., 8 mice): 9 days | mice alive on day 20 (out of 8) ([3]; 30 mg/kg for 8 days i.p. pumps): 5 mice | morbidity score post-infection day 5 until day 14 ([3]; 30 mg/kg for 8 days i.p. pumps): 24/40 | morbidity score post-infection day 20 ([3]; 30 mg/kg for 8 days i.p. pumps): 11/40 | morbidity score post-infection day 4 ([3]; 30 mg/kg for 8 days i.p. pumps, 40 = all 8 mice healthy): 28/40 | delay of onset of the first death ([3]; 60 mg/kg for 4 days i.p. by 1003D pumps): 4 days | delay of 50% mortality in relation to control and placebo groups ([3]; 60 mg/kg for 4 days i.p. pumps): 5 days | mice alive on day 20 (out of 8) ([3]; 60 mg/kg for 4 days i.p. pumps): 3 mice | morbidity score post-infection day 5 ([3]; 60 mg/kg for 4 days i.p. pumps): 30/40 | morbidity score post-infection day 14 ([3]; 60 mg/kg for 4 days i.p. pumps): 6/40 | 50% mortality, post-infection day ([3]; 60 mg/kg for 4 days i.p. pumps): 12 days | acute toxicity [4]: no acute toxicity was observed | delayed growth (weight) on the day after the injection ([4]; single i.v. dose 200 mg/kg): approximately 1 g | delayed growth (weight) on the day after the injection ([4]; single i.v. dose 300 mg/kg): approximately 1 g | delayed growth (weight) on the day after the injection ([4]; single i.v. dose 400 mg/kg): approximately 2 g
